{"source": "patent US20240199693A1", "about": "“HE[…] FOR USE IN THE TREATMENT OF HMGB1-DEPENDENT DISEASES” (priority 2021, published 2024)", "assay_type_in_all_cases": "in vivo", "key": {"HMGB1 [1]": {"system": "HMGB1", "test": "Mouse model of acute lung injury induced by intratracheal LPS; HMGB1 in bronchoalveolar fluid by ELISA", "conditions": "C57Bl/6 male mice, BALF after 48 hours, mean±SEM (n=6)", "procedure": "This example illustrates efficacy of compounds of the invention in the inhibition of HMGB1 secretion.\nCompounds of the invention were tested in a mouse model of acute lung injury induced by intratracheal administration of lipopolysaccharide (LPS) as described, for instance, in D'Alessio F R. Mouse Models of Acute Lung Injury and ARDS. Methods Mol Biol. 2018, 1809:341-350. C57BI/6 male mice were randomized into eight groups of 6 animals each. Mice were treated intratracheally with 1 μg/mouse of α-Galactosyl Ceramide (α-GalCer, KRN7000, Sigma-Aldrich) and after 24 hours with LPS (E. coli; 1 mg/mouse) and 10 μL/mouse Freund's complete adjuvant. Then, mice received by inhalation 50 μL saline (control); 10, 100, or 250 μg/kg of H-Tyr-D-Ala-Gly-Phe-Leu-Arg-Arg-NH2; 100 μg/kg of H-Tyr-D-Ala-Gly-Phe-Leu-Arg-Arg-NHC2H5; 100 μg/kg of H-Tyr-D-Ala-Gly-Phe-Leu-Arg-Arg-NHC4H9; 100 μg/kg of H-Tyr-D-Ala-Gly-Phe-Leu-Arg-Arg-N(CH3)2; 10 μg/kg H-Tyr-D-Ala-Gly-Phe-Leu-Arg-Arg-OH (Chavkin C et al. 1981); or 250 μg/kg of [D-Ala^2, D-Leu^5]-enkephalin as solutions in 50 μL. saline. After 48 hours, HMGB1 concentrations were measured in bronchoalveolar fluid (BALF) with commercially available ELISA kit for HMGB1 (SEA3999Mu, Cloud-Clone corp.). Results are presented in Tables 1 as mean±SEM (n=6) of HMGB1 levels in BALF, in % of control."}, "HMGB1 [2]": {"system": "HMGB1", "test": "Mouse model of rheumatoid arthritis (type II collagen-induced); serum HMGB1 by ELISA and arthritis incidence", "conditions": "BALB/c male mice", "procedure": "(§1) This example illustrates that compound (I) is useful for treating arthritis, the HMGB1-dependent disease.\nAn efficacy of the compound of the invention was tested in a mouse model of rheumatoid arthritis, as described in Brand et al., Nat Protoc. 2007, 2(5):1269-75. Male BALB/c mice were randomized into two groups of 5 animals each. Arthritis was induced in using an intradermal injection of cold emulsion (0.05 ml) prepared by emulsifying chicken type II collagen (CII) solution in acetic acid with complete Freund's adjuvant (CFA) into the base of the tail. Three weeks later, the mice were administered by a second injection in the same manner. Following the booster immunization, mice received 50 μL saline i.p. (control) or 100 μg/kg H-Tyr-D-Ala-Gly-Phe-Leu-Arg-Arg-NH2 in 50 μL saline i.p., once-a-day, for two weeks. The serum level of HMGB1 was determined on day 35 with commercially available ELISA kit for HMGB1 (SEA3999Mu, Cloud-Clone corp.). The clinical severity of arthritis in each paw was quantified according to a graded scale from 0 to 4, as described in Brand et al., Nat Protoc. 2007, 2(5):1269-75. Results are presented in Table 2 as and mean±SEM (n=5) of HMGB1 levels in serum in % of control and arthritis incidence."}, "HMGB1 [3]": {"system": "HMGB1", "test": "Mouse model of antigen-induced arthritis (mBSA); knee swelling and HMGB1 in synovial lavage fluid by ELISA", "conditions": "C3H/He male mice, 0.14 mg/kg s.c. once-a-day for 5 days, 25th day, mean±SEM (n=6)", "procedure": "as §1\nAn efficacy of H-Tyr-D-Ala-Gly-Phe-Leu-Arg-Arg-NH2 acetate was tested in a mouse model of antigen-induced arthritis induced by methylated bovine serum albumin (mBSA), as described in Brackertz et al., Arthritis Rheum. 1977, 20(3):841-50; Staite et al., Agents and Actions 1989, 27(3/4):338-40. Briefly, male C3H/He mice 8-10 weeks of age were randomized into two groups of 6 animals each. Immunization: the mice were immunized 2 times (on the 0th and 7th days) with s.c. injections of mBSA (50 mg/kg, Sigma-Aldrich) emulsified in 20 μL Freund's complete adjuvant and on the 21st day received intra-articular injection of mBSA (50 mg/kg) in 20 μL saline in the right hind knee as a booster immunization. […] Treatment: the mice received s.c. injections either 0.1 ml saline (control, n=6) or 0.14 mg/kg H-Tyr-D-Ala-Gly-Phe-Leu-Arg-Arg-NH2 acetate in 0.1 ml saline (n=6), once-a-day for 5 consecutive days, beginning 30 min after the booster immunization. The disease course was quantified by assessment of the swelling of the arthritic knee joint on 25th day. HMGB1 levels (pg/ml) in the synovial lavage fluids of the arthritic joint on 25th day was measured using ELISA (SEA3999Mu, Cloud-Clone corp.). […]"}}, "note": "Square brackets hold non-standard residues; d marks the D form. Ends that are not written are not given here."}
{"substance": "L-tyrosyl-D-alanyl-L-glycyl-L-phenylala nyl-L-leucyl-L-arginyl-L-arginine amide acetate (Y[dA]GFLRR-NH2; also: acetate salt) [heptapeptide amide of formula (I), Z = NH2]", "values": [{"measurement": "HMGB1 in BALF, % of control", "setting": "HMGB1 [1]; 100 μg/kg by inhalation", "value": "31.8 ± 12.4", "unit": "%"}, {"measurement": "HMGB1 in BALF, % of control", "setting": "HMGB1 [1]; 250 μg/kg by inhalation", "value": "34.2 ± 8.0", "unit": "%"}, {"measurement": "Arthritis incidence", "setting": "HMGB1 [2]; 100 μg/kg i.p. once-a-day for two weeks (n=5)", "value": 20, "unit": "%"}, {"measurement": "HMGB1 in serum, % of control", "setting": "HMGB1 [2]; 100 μg/kg i.p. once-a-day for two weeks, day 35, mean±SEM (n=5)", "value": "21.5 ± 5.9", "unit": "%"}, {"measurement": "HMGB1 in synovial lavage fluid of the arthritic joint", "setting": "HMGB1 [3]", "value": "119 ± 38", "unit": "pg/mL"}, {"measurement": "Knee joint circumference", "setting": "HMGB1 [3]", "value": "1.32 ± 0.04", "unit": "cm"}]}
{"substance": "H-Tyr-D-Ala-Gly-Phe-Leu-Arg-Arg-NHC4H9 acetate (H-Y[dA]GFLRR-NHC4H9; also: acetate salt) [heptapeptide butylamide of formula (I)]", "values": [{"measurement": "HMGB1 in BALF, % of control", "setting": "HMGB1 [1]; 100 μg/kg by inhalation", "value": "40.1 ± 5.0", "unit": "%"}]}
{"substance": "H-Tyr-D-Ala-Gly-Phe-Leu-Arg-Arg-NHC2H5 acetate (H-Y[dA]GFLRR-NHEt; also: acetate salt) [heptapeptide ethylamide of formula (I)]", "values": [{"measurement": "HMGB1 in BALF, % of control", "setting": "HMGB1 [1]; 100 μg/kg by inhalation", "value": "35.2 ± 7.2", "unit": "%"}]}
{"substance": "H-Tyr-D-Ala-Gly-Phe-Leu-Arg-Arg-N(CH3)2 acetate (H-Y[dA]GFLRR-NMe2; also: acetate salt) [heptapeptide dimethylamide of formula (I)]", "values": [{"measurement": "HMGB1 in BALF, % of control", "setting": "HMGB1 [1]; 100 μg/kg by inhalation", "value": "42.3 ± 5.9", "unit": "%"}]}
{"substance": "H-Tyr-D-Ala-Gly-Phe-Leu-Arg-Arg-OH (H-Y[dA]GFLRR-OH; also: acetate salt) [modified [D-Ala^2]-dynorphin (1-7) described by Chavkin C et al. 1981; structurally similar comparison peptide, reference compound]", "values": [{"measurement": "HMGB1 in BALF, % of control", "setting": "HMGB1 [1]; 10 μg/kg by inhalation", "value": "88.67 ± 10.5", "unit": "%"}]}
